Tests used:
Vero E6/TMPRSS2 cells = assay: Cytotoxic activity evaluation, Vero E6/TMPRSS2 cells; assay type: cell-based; settings: read-out: SARS-CoV-2 test CC50 (50% cell proliferation inhibitory concentration), no virus, 3 days
Experimental: (§1) <Operation Procedure (Cytotoxic Activity Evaluation)>
A 3- to 5-fold serial dilution series of test substances was prepared in DMSO, diluted with 2% FBS/MEM so that the concentration of DMSO was 2%, and dispensed into a 96 well plate (50 μL/well, DMSO final concentration 0.5%). • Dilution and dispensing of cells
The cells prepared to an appropriate number were seeded at 100 μL/well to the plate into which the test substance was dispensed. Thereafter, the cells were cultured in a CO2 incubator at 37° C. for 3 days. • Dispensing of CellTiter-Glo (registered trademark) 2.0 Reagent
(§2) Same as those described in the section for evaluation of antiviral activity • Measurement of luminescence intensity
(§3) Same as those described in the section for evaluation of antiviral activity
Excel, TIBCO Spotfire, or a program having equivalent calculation processing capability based on the following calculation formula.

[1] = system: SARS-CoV-2 (hCoV-19/Japan/TY/WK-521/2020 strain); assay: CPE suppression effect confirmation test (SARS-CoV-2, Vero E6/TMPRSS2 cells), antiviral activity; assay type: cell-based; settings: read-out: SARS-CoV-2 EC50 (50% CPE inhibitory concentration), 3 days culture
RPMI 2650 cells = assay: Cytotoxic activity evaluation, RPMI 2650 cells; assay type: cell-based; settings: read-out: Influenza test CC50 (50% cell proliferation inhibitory concentration), no virus, 3 to 6 days
Experimental: as §1
On the day before the compound treatment, cells prepared to an appropriate number were seeded in a 96 well plate at 100 μL/well. Thereafter, the cells were cultured in a CO2 incubator at 37° C. • Preparation of 2 μg/mL trypsin/0.5% BSA/MEM
Same as those described in the section for evaluation of antiviral activity • Dilution and dispensing of test substance
A 3- to 5-fold serial dilution series of test substances was prepared in DMSO in advance, and diluted with 2 μg/mL trypsin/0.5% BSA/MEM so that the final concentration of DMSO was 0.5% (100 to 200 μL/well). The cells were washed with MEM, and then cultured in a test substance-added medium for 3 to 6 days. Double measurement was performed for each drug. • Dispensing of resazurin solution
Same as those described in the section for evaluation of antiviral activity • Measurement of fluorescence intensity
as §3
(§4) [formula] [formula] • Calculation of Selectivity Index (SI)

[2] = system: influenza virus (A/WSN/33 (H1N1) strain); assay: CPE suppression effect confirmation test (influenza virus, RPMI 2650 cells), antiviral activity; assay type: cell-based; settings: read-out: Influenza EC50 (50% CPE inhibitory concentration), A/WSN/33 (H1N1), 3 to 6 days
Lung distribution test = assay type: in vivo; settings: SD rats, 8 hours after oral administration (25 mg/kg); for concentration at 8 h: rat, read-out: Prodrug form concentration (lung)
Experimental: Test Example 5: Lung Distribution Test
Materials and methods for experiments • (1) Animals used: SD rats are used. • (2) Rearing conditions: the SD rats are allowed to freely take solid feed and sterilized tap water. • (3) Dose and grouping setting: a given dose is orally administered. Grouping is set as below.
Oral administration: 1 to 100 mg/kg (n=2 to 3) • (4) The test sample is orally administered in a form of solution or suspension. • (5) Administration method: the test sample is forcedly administered into the stomach through an oral probe for the oral administration. • (6) Evaluation items: Blood and lung are collected, and the concentrations of the compound of the present invention in plasma and lung are measured using LC/MS/MS.
Lung concentrations of Compound I-057 as an active form and Compound I-077 as a prodrug form thereof 8 hours after they were orally administered (25 mg/kg) are shown below.
In addition, lung concentrations of other prodrug forms 8 hours after they were orally administered (25 mg/kg) are shown below.

[3] = Cytotoxic activity evaluation, HEK293T/ACE2-TMPRSS2 cells; assay type: cell-based; settings: human, no virus
Experimental: as §1
A 3- to 5-fold serial dilution series of test substances was prepared in DMSO, diluted with 2% FIBS/MEM so that the concentration of DMSO was 2%, and dispensed into a 96 or 384/well well plate (50 μL/well or 40 μL/well, DMSO final concentration 0.5%). • Dilution and dispensing of cells
The cells prepared to an appropriate number were seeded at 100 μL/well or 40 μL/well to the plate into which the test substance was dispensed. Thereafter, the cells were cultured in a CO2 incubator at 37° C. for 3 days. • Dispensing of CellTiter-Glo (registered trademark) 2.0 Reagent
as §2, §3, §4

[4] = system: SARS-CoV-2 (hCoV-19/Japan/TY/WK 521/2020 strain); assay: microbe, parasite or virus in culture; assay type: cell-based; settings: HEK293T/ACE2-TMPRSS2 cells; for EC50: Severe acute respiratory syndrome coronavirus 2, HEK-293T, 72 h, read-out: SARS-CoV-2 EC50 (50% CPE inhibitory concentration), 293T-AT, 3 days culture

| Structure (SMILES) | CC50 (RPMI 2650 cells) [µM] | EC50 [2] [µM] | CC50 at 3 days [3] [µM] | SARS-CoV-2 SI (Selectivity Index), 293T-AT [4] | EC50 [4] [µM] | further results |
| --- | --- | --- | --- | --- | --- | --- |
| N/C(=N\O)c1cc([C@@H]2N[C@H](CO)[C@@H](O)[C@H]2O)n2ncnc(N)c12 [Compound I-016] | – | – | – | – | – | CC50 (Vero E6/TMPRSS2 cells): > 500 µM; EC50 [1]: 1.57 µM |
| CC(C)(C)OC(=O)N1[C@H](CO)[C@@H](O)[C@@H](O)[C@@H]1c1cc(N)c2c(N)ncnn12 [Compound I-024] | 310 | 47.9 | – | – | – | CC50 (Vero E6/TMPRSS2 cells): 189 µM; EC50 [1]: 49.3 µM |
| OC[C@H]1N[C@@H](c2ccc3c(NO)ncnn23)[C@H](O)[C@@H]1O [Compound I-020] | > 500 | 20.2 | – | – | – | – |
| CCC(C)(C)C(=O)OC[C@H]1N[C@@H](c2cc(C(N)=O)c3c(N)ncnn23)[C@H](O)[C@@H]1O [Compound I-063] | – | – | – | – | – | concentration at 8 h (Lung distribution test): 3.85 ng/g |
| N#C[C@@]1(c2c[nH]c3c(N)ncnc23)O[C@H](CO)[C@@H](O)[C@H]1O [Compound I-048] | – | – | – | – | – | CC50 (Vero E6/TMPRSS2 cells): > 500 µM; EC50 [1]: 40.9 µM |
| Nc1ncnn2c([C@@H]3N[C@H](CO)[C@@H](O)[C@H]3O)cc(O)c12 [Compound I-022] | > 500 | 105 | – | – | – | CC50 (Vero E6/TMPRSS2 cells): 129 µM; EC50 [1]: 1.03 µM |
| Cn1ccc(-c2cc([C@H]3[C@@H]4OC(C)(C)O[C@@H]4[C@@H](CO)N3C(=O)OC(C)(C)C)n3ncnc(N)c23)n1 [Compound I-030] | > 500 | 7.65 | – | – | – | – |
| Cc1nc(-c2cc([C@@H]3N[C@H](CO)[C@@H](O)[C@H]3O)n3ncnc(N)c23)n[nH]1 [Compound I-088] | – | – | > 500 | >16.4 | 30.4 | – |
| CCn1ccc(-c2cc([C@@H]3N[C@H](CO)[C@@H](O)[C@H]3O)n3ncnc(N)c23)n1.Cl [Compound I-081] | – | – | 306 | 222 | 1.38 | – |
| Nc1ncnn2c([C@@H]3O[C@](F)(CO)[C@@H](O)C3(F)F)ccc12 [Compound I-008] | 432 | 7.01 | – | – | – | – |
| CC1(C)O[C@@H]2[C@H](O1)[C@@H](CO)N[C@H]2c1cc(/C=N/O)c2c(N)ncnn12 [Compound I-018] | > 500 | 1.06 | – | – | – | – |
| Cl.Nc1ncnn2c([C@@H]3N[C@H](CO)[C@@H](O)[C@H]3O)cc(-c3cc(O)ccn3)c12 [Compound I-087] | – | – | 75 | 3.97 | 18.9 | – |
| CC(C)(C)CC(=O)OC[C@H]1N[C@@H](c2cc(C(N)=O)c3c(N)ncnn23)[C@H](O)[C@@H]1O [Compound I-058] | – | – | – | – | – | concentration at 8 h (Lung distribution test): 12.7 ng/g |
| Cl.[2H]C([2H])(O)[C@H]1N[C@@H](c2cc(C(N)=O)c3c(N)ncnn23)[C@H](O)[C@@H]1O [Compound I-095] | – | – | 62.9 | 2769 | 0.0228 | – |
| CCC(CC)C(=O)OC[C@H]1N[C@@H](c2cc(C(N)=O)c3c(N)ncnn23)[C@H](O)[C@@H]1O [Compound I-054] | – | – | – | – | – | Active form concentration (lung) (Lung distribution test): 6480 ng/g |
| CC(C)(C(=O)OC[C@H]1N[C@@H](c2cc(C(N)=O)c3c(N)ncnn23)[C@H](O)[C@@H]1O)c1ccccc1 [Compound I-072] | – | – | – | – | – | concentration at 8 h (Lung distribution test): 6.41 ng/g |
| Cc1cnc(-c2cc([C@@H]3N[C@H](CO)[C@@H](O)[C@H]3O)n3ncnc(N)c23)o1.Cl [Compound I-090] | – | – | > 500 | >13.1 | 38.1 | – |
| Cl.Nc1ncnn2c([C@@H]3N[C@H](CO)[C@@H](O)[C@H]3O)cc(-c3ccn(CCO)n3)c12 [Compound I-092] | – | – | > 500 | >1577 | 0.317 | – |
| Cl.Nc1nc(F)nn2c([C@@H]3N[C@H](CO)[C@@H](O)[C@H]3O)cc(-c3ncc[nH]3)c12 [Compound I-094] | – | – | > 500 | >10.2 | 49.1 | – |
| CC(O)c1cc([C@@H]2N[C@H](CO)[C@@H](O)[C@H]2O)c2ncnc(N)n12 (some centres unmarked) [Compound I-038] | > 500 | 4.41 | – | – | – | – |
